Results on 23 compounds are retold here after ChEMBL document CHEMBL1159056, “Antitumor agents. 271: total synthesis and evaluation of brazilein and analogs as anti-inflammatory and cytotoxic agents” (Bioorg Med Chem Lett, 2010).

The nature of assay [1]: Antiinflammatory activity in human neutrophils assessed as inhibition of fMLP/cytochalasin B-induced elastase release. It is filed as functional, cell-based. As to conditions: Neutrophil.
Assay [2] is described as follows: Antiinflammatory activity in human neutrophils assessed as inhibition of fMLP/cytochalasin B-induced superoxide anion generation at 10 ug/mL. In kind it is functional. Conditions: Neutrophil.
For the next assay, the system named is DU-145. The assay is described as follows: Cytotoxicity against human DU145 cells. It is filed as functional, cell-based.
A short description of assay [3]: Cytotoxicity against human KBVIN cells. In kind it is functional, cell-based.
For the next assay, the system named is KB. The assay is described as follows: Cytotoxicity against human KB cells. It is filed as functional, cell-based.
A short description of assay [4]: Antiinflammatory activity in human neutrophils assessed as inhibition of fMLP/cytochalasin B-induced superoxide anion generation. It is filed as functional, cell-based. As to conditions: Neutrophil.
The subject of the next assay is A549. Description: Cytotoxicity against human A549 cells. It is filed as functional, cell-based.
Assay [5] in a line: Antiinflammatory activity in human neutrophils assessed as inhibition of fMLP/cytochalasin B-induced elastase release at 10 ug/mL. It is filed as functional. Conditions: Neutrophil.
Assay [6] can be described thus: Cytotoxicity against human Hep3B cells. It is filed as functional, cell-based, Hep 3B2.
A further assay has as its system MDA-MB-231. Description: Cytotoxicity against human MDA-MB-231 cells. In kind it is functional, cell-based.
A further assay has as its system HepG2. The assay is described as follows: Cytotoxicity against human HepG2 cells. In kind it is functional, cell-based.
The next assay relates to MCF7. The assay is described as follows: Cytotoxicity against human MCF7 cells. It is filed as functional, cell-based.
The test system of a further assay is Ca9-22. Description: Cytotoxicity against human Ca9-22 cells. In kind it is functional, cell-based.

Converted amounts (≈) assume the structure as drawn.

One may read the IC50 as the concentration that inhibits the measured activity by half. The inhibition is the relative decrease from the control value, in per cent. As to `O=C1C=C2CC3(OC(=O)c4ccccc4)COc4cc(OC(=O)c5ccccc5)ccc4C3=C2C=C1OC(=O)c1ccccc1` (stereo not given), the IC50 in [1] stood at 13.2 µM. In addition, in assay [2], the inhibition at 10 µg/mL is 14.1%.
On to `COC1=CC2=C3c4ccc(OC)cc4OCC3(OC)CC2=CC1=O` (stereo not given), for which the IC50 was 17.5 µM with DU-145; 13.6 µM in [1]; 16.9 µM in [3]; 15.2 µM in the assay with KB; 4.65 µM in assay [4]; over 20 µM in the assay on A549.
In the case of `COc1ccc2c(c1)OCC1(O)Cc3cc(OC)c(OC)cc3C21` (stereo not given), the IC50 in the assay with DU-145 is 13.8 µM; in assay [3] it was 7.6 µM; in the assay on KB it was 10.5 µM; in assay [4], 4.52 µM; in the assay with A549, over 20 µM. Besides, the inhibition at 10 µg/mL in assay [5] was 35.8%.
For `CCC(=O)OC1=CC2=C3c4ccc(OC(=O)CC)cc4OCC3(O)CC2=CC1=O` (stereo not given), the half-inhibitory concentration (IC50) is 7.1 µM in the assay on DU-145; 3.28 µM in [1]; 7.7 µM in the assay with KB; 1.65 µM in [4]; 7.8 µM with A549.
Consider `CCN(CC)C(=O)OC1=CC2=C3c4ccc(OC(=O)N(CC)CC)cc4OCC3(O)CC2=CC1=O` (stereo not given), for which, in [1], the IC50 worked out at 15.5 µM. For the same compound, in assay [2], the inhibition at 10 µg/mL is -7%.
For `COc1ccc2c(c1)OC/C(=C\c1ccc(OC)c(OC)c1)C2=O`, the IC50 in the assay with DU-145 was over 20 µM; in [3], 18.3 µM; in the assay on KB, over 20 µM; in the assay on A549, over 20 µM.
Regarding `COc1ccc2c(c1)OCC1(OC1c1ccc(OC)c(OC)c1)C2=O` (stereo not given), the IC50 was 10.6 µM with DU-145; 6.4 µM in assay [3]; 9.8 µM in the assay on KB; 1.9 µM in assay [4]; over 20 µM in the assay with A549. Moreover, the inhibition at 10 µg/mL in [5] amounted to 43.7%.
Take `O=C1C=C2CC3(O)COc4cc(OCc5ccccc5)ccc4C3=C2C=C1OCc1ccccc1` (stereo not given): in [1], the IC50 is 8.76 µM. In addition, in assay [2], the inhibition at 10 µg/mL came out at 33.4%.
As for `COC1=CC2=C3c4ccc(OC)cc4OCC3(O)CC2=CC1=O` (stereo not given), the inhibition at 10 µg/mL stood at 26.8% in assay [5] and 18.6% in assay [2].
For `CCOC1=CC2=C3c4ccc(OCC)cc4OCC3(O)CC2=CC1=O` (stereo not given), the IC50 in the assay on DU-145 was found to be 11 µM; in assay [1], 8.37 µM; in assay [3], 16.5 µM; in the assay with KB, 11.3 µM; in [4], 4.35 µM; with A549 it was 15.3 µM.
Consider `CN(C)C(=O)OC1=CC2=C3c4ccc(OC(=O)N(C)C)cc4OCC3(O)CC2=CC1=O` (stereo not given), for which the inhibition at 10 µg/mL in assay [5] was 11.4%; in [2], 16.4%.
With `CC(C)=CCOC1=CC2=C3c4ccc(OCC=C(C)C)cc4OCC3(O)CC2=CC1=O` (stereo not given), the IC50 in assay [1] stood at 10.1 µM; in assay [4] it was 19.7 µM.
For `C=CCOC1=CC2=C3c4ccc(OCC=C)cc4OCC3(OCC=C)CC2=CC1=O` (stereo not given), the IC50 in [1] is 11.8 µM; in [4], 16.2 µM.
For `CCOC1=CC2=C3c4ccc(OCC)cc4OCC3(OCC)CC2=CC1=O` (stereo not given), the IC50 in the assay on DU-145 is 18.1 µM; in assay [3] it was 17.9 µM; in the assay with KB, 18.9 µM; in assay [4] it was 23.9 µM; in the assay with A549, over 20 µM. The inhibition at 10 µg/mL in assay [5] came to 35.5%.
Turning to `C=CCOC1=CC2=C3c4ccc(OCC=C)cc4OCC3(O)CC2=CC1=O` (stereo not given), the 50% inhibitory concentration (IC50) is 9.1 µM in the assay with DU-145; 16.5 µM in assay [1]; 5.4 µM with KB; 19.7 µM in assay [4]; 9.4 µM in the assay with A549.
Take `CC(=O)OC1=CC2=C3c4ccc(OC(C)=O)cc4OCC3(O)CC2=CC1=O` (stereo not given): the IC50 in the assay on DU-145 was determined as 8.2 µM; in the assay with KB, 10 µM; in assay [4] it was 18.7 µM; in the assay with A549 it was 8.1 µM. In addition, the inhibition at 10 µg/mL in assay [5] was 40.9%.
Turning to `CCC(=O)OC1=CC2=C3c4ccc(OC(=O)CC)cc4OCC3(OC(=O)CC)CC2=CC1=O` (stereo not given), the IC50 with DU-145 was 11 µM; in assay [1], 1.9 µM; in [3], 11.3 µM; in the assay on KB, 6.6 µM; in [4], 1.2 µM; with A549, 13.5 µM.
For `COc1ccc2c(c1)OCC(O)(Cc1ccc(OC)c(OC)c1)C2O` (stereo not given), the IC50 in the assay with DU-145 is over 20 µM; in assay [1], 10.2 µM; in [3], over 20 µM; in the assay with KB, over 20 µM; in [4], 8.38 µM; in the assay on A549, over 20 µM.
`O=C1C=C2CC3(O)COc4cc(O)ccc4C3=C2C=C1O` (stereo not given) [BRAZILEIN]: the IC50 worked out at 14.2 µM in [1]; 3.42 µg/mL (≈ 12 µM) in assay [6]; 4 µM in [4]; 2.36 µg/mL (≈ 8.3 µM) with MDA-MB-231; 3.15 µg/mL (≈ 11.1 µM) in the assay on HepG2; 3.96 µg/mL (≈ 13.9 µM) in the assay on MCF7. In addition, the IC50 with Ca9-22 was 8.63 µg/mL (≈ 30.4 µM); with A549, 9.68 µg/mL.
Consider `Oc1ccc2c(c1)OC[C@]1(O)Cc3cc(O)c(O)cc3[C@H]21` [BRAZILIN], for which the IC50 in [1] stood at 16.7 µM; in assay [6], 4.54 µg/mL (≈ 15.9 µM); in assay [4], 4.6 µM; in the assay with MDA-MB-231, 3.09 µg/mL (≈ 10.8 µM); in the assay with HepG2 it was 3.47 µg/mL (≈ 12.1 µM); with MCF7, 6.29 µg/mL (≈ 22 µM). In addition, the figures for the IC50 in the assay with Ca9-22 and with A549 were 9.78 µg/mL (≈ 34.2 µM) and 15.6 µg/mL, respectively.
For `c1ccc2c(c1)[I+]c1ccccc1-2` [DIPHENYLENEIODONIUM], the IC50 in assay [4] turned out to be 0.7 µM.
`COc1cccc2c1C(=O)c1c(O)c3c(c(O)c1C2=O)C[C@@](O)(C(=O)CO)C[C@@H]3O[C@H]1C[C@H](N)[C@H](O)[C@H](C)O1` [DOXORUBICIN]: the IC50 in [6] worked out at 0.56 µg/mL (≈ 1.03 µM); with MDA-MB-231, 1.05 µg/mL (≈ 1.93 µM); with HepG2 it was 0.34 µg/mL (≈ 0.626 µM); with MCF7, 0.42 µg/mL (≈ 0.773 µM); with A549 it was 0.32 µg/mL.
In the case of `CC(=O)O[C@H]1C(=O)[C@@]2(C)[C@H]([C@H](OC(=O)c3ccccc3)[C@]3(O)C[C@H](OC(=O)[C@H](O)[C@@H](NC(=O)c4ccccc4)c4ccccc4)C(C)=C1C3(C)C)[C@]1(OC(C)=O)CO[C@@H]1C[C@@H]2O` [PACLITAXEL], the values for the IC50 (in assay [3]; in the assay with KB; in the assay on A549) were 0.00109 µM, 0.00155 µM and 0.00193 µM, respectively.
